Values of other authors as cited in patent US20080247985A1, “Composition base containing solubilized allantoin and urea for topical preparations” (priority 2007, published 2008).

Conditions: water at 25 °C

Structure (SMILES): NC(=O)NC1NC(=O)NC1=O (stereo not shown) [allantoin, (2,5-dioxo-4-imidazolidinyl) urea]
- Solubility in water: 0.45%
